± gives the expanded uncertainty stated by the source.
Settings: for electrical conductivity / viscosity / mass density: 100 kPa; for electrical conductivity / viscosity / mass density / surface tension liquid-gas: Liquid; for electrical conductivity: Alternating current cell with electrodes; for viscosity: Capillary tube (Ostwald / Ubbelohde) method; for mass density: Vibrating tube method; for surface tension liquid-gas: Maximal bubble pressure; for Glass transition temperature: DSC

SMILES | electrical conductivity (293.15 K) [S/m] | viscosity (293.15 K) [mPa·s] | mass density (293.15 K) [kg/m3] | surface tension liquid-gas (293.15 K) [mN/m] | electrical conductivity (298.15 K) [S/m] | viscosity (298.15 K) [mPa·s] | mass density (298.15 K) [kg/m3] | surface tension liquid-gas (298.15 K) [mN/m] | electrical conductivity (303.15 K) [S/m] | viscosity (303.15 K) [mPa·s] | mass density (303.15 K) [kg/m3] | surface tension liquid-gas (303.15 K) [mN/m] | electrical conductivity (308.15 K) [S/m] | viscosity (308.15 K) [mPa·s] | mass density (308.15 K) [kg/m3] | surface tension liquid-gas (308.15 K) [mN/m] | electrical conductivity (313.15 K) [S/m] | viscosity (313.15 K) [mPa·s] | mass density (313.15 K) [kg/m3] | surface tension liquid-gas (313.15 K) [mN/m] | other results
CCCC(=O)[O-].CCCC[NH3+] [n-butylammonium butanoate] | 0.031 ± 0.003 | 1112 ± 120 | 907.81 ± 1.8 | 25.7 ± 0.3 | 0.038 ± 0.004 | 812.6 ± 89 | 904.94 ± 1.8 | 25.4 ± 0.3 | 0.047 ± 0.005 | 599.38 ± 64 | 902.06 ± 1.8 | 25.1 ± 0.3 | 0.059 ± 0.006 | 448.37 ± 47 | 899.18 ± 1.8 | 24.8 ± 0.3 | 0.073 ± 0.007 | 338.47 ± 35 | 896.28 ± 1.8 | 24.5 ± 0.3 | electrical conductivity (318.15 K): 0.089 ± 0.009 S/m; viscosity (318.15 K): 262.05 ± 27 mPa·s; mass density (318.15 K): 893.32 ± 1.8 kg/m3; surface tension liquid-gas (318.15 K): 24.2 ± 0.3 mN/m; electrical conductivity (323.15 K): 0.109 ± 0.011 S/m; viscosity (323.15 K): 199.16 ± 20 mPa·s; mass density (323.15 K): 890.57 ± 1.8 kg/m3; surface tension liquid-gas (323.15 K): 23.9 ± 0.3 mN/m; electrical conductivity (328.15 K): 0.132 ± 0.013 S/m; viscosity (328.15 K): 154.43 ± 16 mPa·s; mass density (328.15 K): 887.56 ± 1.8 kg/m3; surface tension liquid-gas (328.15 K): 23.6 ± 0.3 mN/m; electrical conductivity (333.15 K): 0.159 ± 0.016 S/m; viscosity (333.15 K): 126.18 ± 13 mPa·s; mass density (333.15 K): 884.61 ± 1.8 kg/m3; surface tension liquid-gas (333.15 K): 23.4 ± 0.3 mN/m; Glass transition temperature: -81.80 ± 2.1 °C
CCCC[NH3+].O=C[O-] [butylammonium formate] | 0.287 ± 0.029 | 160.19 ± 16 | 976.96 ± 2 | 33.8 ± 0.3 | 0.332 ± 0.033 | 120.82 ± 12 | 973.8 ± 2 | 33.3 ± 0.3 | 0.384 ± 0.038 | 92.68 ± 9.3 | 970.66 ± 1.9 | 32.9 ± 0.3 | 0.443 ± 0.044 | 72.01 ± 7.2 | 967.48 ± 1.9 | 32.4 ± 0.3 | 0.511 ± 0.051 | 57.07 ± 5.7 | 964.4 ± 1.9 | 32 ± 0.3 | electrical conductivity (318.15 K): 0.588 ± 0.059 S/m; viscosity (318.15 K): 45.61 ± 4.6 mPa·s; mass density (318.15 K): 961.21 ± 1.9 kg/m3; surface tension liquid-gas (318.15 K): 31.5 ± 0.3 mN/m; electrical conductivity (323.15 K): 0.67 ± 0.07 S/m; viscosity (323.15 K): 37.22 ± 3.7 mPa·s; mass density (323.15 K): 958.02 ± 1.9 kg/m3; surface tension liquid-gas (323.15 K): 31.1 ± 0.3 mN/m; electrical conductivity (328.15 K): 0.761 ± 0.076 S/m; viscosity (328.15 K): 30.62 ± 3.1 mPa·s; mass density (328.15 K): 954.95 ± 1.9 kg/m3; surface tension liquid-gas (328.15 K): 30.6 ± 0.3 mN/m; electrical conductivity (333.15 K): 0.873 ± 0.087 S/m; viscosity (333.15 K): 25.39 ± 2.5 mPa·s; mass density (333.15 K): 951.82 ± 1.9 kg/m3; surface tension liquid-gas (333.15 K): 30.2 ± 0.3 mN/m; Glass transition temperature: -108.50 ± 2.1 °C
CC(=O)O.CCCCN [butylammonium acetate] | 0.051 ± 0.005 | 771.6 ± 84 | 959.02 ± 1.9 | 31.5 ± 0.3 | 0.065 ± 0.007 | 546.33 ± 58 | 955.95 ± 1.9 | 31.1 ± 0.3 | 0.082 ± 0.008 | 397.17 ± 42 | 952.87 ± 1.9 | 30.8 ± 0.3 | 0.103 ± 0.01 | 294.59 ± 31 | 949.87 ± 1.9 | 30.5 ± 0.3 | 0.128 ± 0.013 | 222.26 ± 23 | 946.81 ± 1.9 | 30.1 ± 0.3 | electrical conductivity (318.15 K): 0.159 ± 0.016 S/m; viscosity (318.15 K): 163.91 ± 17 mPa·s; mass density (318.15 K): 943.73 ± 1.9 kg/m3; surface tension liquid-gas (318.15 K): 29.8 ± 0.3 mN/m; electrical conductivity (323.15 K): 0.197 ± 0.02 S/m; viscosity (323.15 K): 126.15 ± 13 mPa·s; mass density (323.15 K): 940.83 ± 1.9 kg/m3; surface tension liquid-gas (323.15 K): 29.5 ± 0.3 mN/m; electrical conductivity (328.15 K): 0.244 ± 0.024 S/m; viscosity (328.15 K): 95.03 ± 9.6 mPa·s; mass density (328.15 K): 937.8 ± 1.9 kg/m3; surface tension liquid-gas (328.15 K): 29.1 ± 0.3 mN/m; electrical conductivity (333.15 K): 0.299 ± 0.03 S/m; viscosity (333.15 K): 77.93 ± 7.8 mPa·s; mass density (333.15 K): 934.68 ± 1.9 kg/m3; surface tension liquid-gas (333.15 K): 28.8 ± 0.3 mN/m; Glass transition temperature: -98.90 ± 2.1 °C
CCC(=O)[O-].CCCC[NH3+] [butylammonium propanoate] | 0.049 ± 0.005 | 916.56 ± 100 | 933.95 ± 1.9 | 28.1 ± 0.3 | 0.06 ± 0.006 | 669.24 ± 72 | 930.84 ± 1.9 | 27.8 ± 0.3 | 0.074 ± 0.007 | 494.64 ± 53 | 927.79 ± 1.9 | 27.5 ± 0.3 | 0.091 ± 0.009 | 371.06 ± 39 | 924.86 ± 1.9 | 27.1 ± 0.3 | 0.111 ± 0.011 | 280.47 ± 29 | 921.76 ± 1.9 | 26.8 ± 0.3 | electrical conductivity (318.15 K): 0.135 ± 0.014 S/m; viscosity (318.15 K): 211.76 ± 22 mPa·s; mass density (318.15 K): 918.77 ± 1.9 kg/m3; surface tension liquid-gas (318.15 K): 26.5 ± 0.3 mN/m; electrical conductivity (323.15 K): 0.164 ± 0.016 S/m; viscosity (323.15 K): 162.68 ± 17 mPa·s; mass density (323.15 K): 915.69 ± 1.8 kg/m3; surface tension liquid-gas (323.15 K): 26.2 ± 0.3 mN/m; electrical conductivity (328.15 K): 0.196 ± 0.02 S/m; viscosity (328.15 K): 128.4 ± 13 mPa·s; mass density (328.15 K): 912.7 ± 1.8 kg/m3; surface tension liquid-gas (328.15 K): 25.9 ± 0.3 mN/m; electrical conductivity (333.15 K): 0.234 ± 0.023 S/m; viscosity (333.15 K): 99.35 ± 10 mPa·s; mass density (333.15 K): 909.66 ± 1.8 kg/m3; surface tension liquid-gas (333.15 K): 25.6 ± 0.3 mN/m; Glass transition temperature: -89.40 ± 2.1 °C

From the NIST ThermoML archive (doi:10.1021/acs.jced.8b00583)
